Results reported in patent US7342034B2, “Fused heterocyclic compounds and analogs thereof, modulators of nuclear hormone receptor function” (Bristol-Myers Squibb Company, priority 2001, dated 2008).
Read-outs that look alike come from different tables or passages of the source.

How the values were obtained:
[1] = molecular target: wild type AR; settings: read-out: Kd for [^3H]-DHT; MDA 453 cells, saturation analysis, Scatchard
Description: For the saturation analysis, the difference between the total binding and the non-specific binding, was defined as specific binding.
Two replicates were used for each sample. After 4 hours at 37° C., cells were washed, harvested and counted as described above. […] The KI, values were determined by application of the Cheng-Prusoff equation to the IC50 values, where:
[formula] After correcting for non-specific binding, IC50 values were determined. […]

[2] = molecular target: T1, AR (Rattus norvegicus, UniProt P15207)
T1 sequence (P15207 1-902): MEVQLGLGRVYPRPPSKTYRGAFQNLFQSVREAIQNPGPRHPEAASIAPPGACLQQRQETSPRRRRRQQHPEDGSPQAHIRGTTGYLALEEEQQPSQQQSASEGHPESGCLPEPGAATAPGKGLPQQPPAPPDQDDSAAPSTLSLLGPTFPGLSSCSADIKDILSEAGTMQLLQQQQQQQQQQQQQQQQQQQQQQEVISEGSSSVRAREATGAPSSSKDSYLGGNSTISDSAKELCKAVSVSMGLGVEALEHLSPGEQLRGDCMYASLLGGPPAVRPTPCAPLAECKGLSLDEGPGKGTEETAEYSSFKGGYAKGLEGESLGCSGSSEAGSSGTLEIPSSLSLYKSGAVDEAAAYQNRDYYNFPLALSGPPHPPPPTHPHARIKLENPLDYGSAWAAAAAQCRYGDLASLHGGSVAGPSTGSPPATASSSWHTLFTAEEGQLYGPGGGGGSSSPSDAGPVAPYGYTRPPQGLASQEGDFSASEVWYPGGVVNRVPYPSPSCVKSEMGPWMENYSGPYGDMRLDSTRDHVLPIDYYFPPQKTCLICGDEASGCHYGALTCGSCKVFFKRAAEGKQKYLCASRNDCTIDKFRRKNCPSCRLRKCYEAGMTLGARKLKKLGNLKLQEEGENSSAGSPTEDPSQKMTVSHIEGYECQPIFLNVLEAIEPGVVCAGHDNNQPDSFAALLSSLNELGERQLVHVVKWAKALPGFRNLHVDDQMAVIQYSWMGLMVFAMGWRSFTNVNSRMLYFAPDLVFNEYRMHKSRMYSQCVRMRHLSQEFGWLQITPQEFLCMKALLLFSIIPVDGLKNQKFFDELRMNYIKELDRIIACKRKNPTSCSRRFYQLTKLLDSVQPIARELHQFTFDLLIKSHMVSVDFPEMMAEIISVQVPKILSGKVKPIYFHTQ

[3] = molecular target: T1, AR; settings: castrated rats
From the text: The activity of compounds of the present invention as AR agonists was investigated in an immature male rat model, a recognized test of anabolic effects in muscle and sustaining effects in sex organs for a given compound, as described in L. G. Hershberger et al., Proc. Soc. […] Yak. Ken. Nem.
The basis of this assay lies in the well-defined action of androgenic agents on the maintenance and growth of muscle tissues and sexual accessory organs in animals and man. […] J. Anat. […] Ital. Biol. Sper. […] II. […] Ital. Biol. Sper. […] As described above, the effects of androgens on maintenance of male sexual accessory organs, such as the prostate and seminal vesicles, is well described. Castration results in rapid involution and atrophy of the prostate and seminal vesicles. This effect can be reversed by exogenous addition of androgens. Since both the levator ani muscle and the male sex organs are the tissues most responsive to the effects of androgenic agents, this model is used to determine the androgen dependent reversal of atrophy in the levator ani muscle and the sex accessory organs in immature castrated rats. Sexually mature rats (200-250 g, 6-8 weeks-old, Sprague-Dawley, Harlan) were acquired castrated from the vendor (Taconic). The rats were divided into groups and treated daily for 7 to 14 days with one of the following: • 1. Control vehicle • 2. […]

| Compound | Kd [1] [nM] | ED80 ([2]; immature castrated rat model) [mg] | EC50 (increase in organ weight) ([2]; immature castrated rats, 3 days dosing) [mg] | higher potency than free T ([2]; organ weight increase, immature castrated rats) | EC50 (increase in organ weight) ([3]; 3 days dosing) [mg] | higher potency than free T ([3]; organ weight increase) |
| --- | --- | --- | --- | --- | --- | --- |
| tritiated dihydrotestosterone [[^3H]-DHT] | 0.7 | – | – | – | – | – |
| CCC(=O)O[C@H]1CC[C@H]2[C@@H]3CCC4=CC(=O)CC[C@]4(C)[C@H]3CC[C@]12C [TP, testosterone propionate] | – | 0.1 | ~0.03 | 10-30 fold | ~0.03 | 10-30 fold |
